Measured values taken from patent US9452990B2, “Complement pathway modulators and uses thereof” (NOVARTIS AG, priority 2012, dated 2016).
Structures can show the parent of a compound that is named as a salt.

Biological target: human complement factor B (CVF-Bb complex) (Homo sapiens (Human), UniProt P00751)
Experiment: Human Complement Factor B ELISA Assay
Format: biochemical
Details: CVF-Bb complex 3 nM, 1 hour preincubation with compound at room temperature, human C3 substrate 1 μM, C3a quantified by ELISA; read-out: Factor B IC50
Method: Human Complement Factor B ELISA Assay
CVF-Bb complex prepared from purified cobra venom factor (1 μM), recombinant human complement factor B (expressed in drosophila cells and purified using standard methods) and human complement factor D (expressed in E. Coli, refolded and purified using standard methods). CVF-Bb complex at 3 nM concentration was incubated with test compound at various concentrations for 1 hour at room temperature in PBS pH 7.4 containing 10 mM MgCl2 and 0.05% (w/v) CHAPS. Human complement C3 substrate purified from plasma was added to a final concentration of 1 μM. After 1 hour incubation at room temperature, the enzyme reaction was stopped by addition of a cocktail of concentrated pan-protease inhibitors. The product of the reaction, C3a, was quantified by means of an enzyme-linked-immunosorbent assay. IC50 values were calculated from percentage of inhibition of CVF-Bb activity as a function of test compound concentration.

SMILES | IC50
COc1cc2c(N)nc(N3CCN(C(=O)/C=C/C4CC4)CC3)nc2c(F)c1OC [Example 1, (E)-1-[4-(4-Amino-8-fluoro-6,7-dimethoxy-quinazolin-2-yl)-piperazin-1-yl]-3-cyclopropyl-propenone hydrochloride] | 500 nM
COc1cc2c(N)nc(N3CCN(C(=O)/C=C/c4ccc(C#N)cc4)CC3)nc2c(F)c1OC [Example 2, 4-{(E)-3-[4-(4-Amino-8-fluoro-6,7-dimethoxy-quinazolin-2-yl)-piperazin-1-yl]-3-oxo-propenyl}-benzonitrile] | 16 nM
COC[C@H]1CN(C(=O)/C=C/C2CC2)CCN1c1nc(N)c2cc(OC)c(OC)c(F)c2n1 [Example 3] | 2060 nM
COCCC1CN(C(=O)/C=C/C2CC2)CCN1c1nc(N)c2cc(OC)c(OC)c(F)c2n1 (centres unmarked) [Example 4, (E)-1-[4-(4-Amino-8-fluoro-6,7-dimethoxy-quinazolin-2-yl)-3-(2-methoxy-ethyl)-piperazin-1-yl]-3-cyclopropyl-propenone] | 16500 nM
COc1cc2c(N)nc(N3CCN(C(=O)/C=C/C4CC4)CC3)nc2c(C#N)c1OC [Example 5, 4-Amino-2-[4-((E)-3-cyclopropyl-acryloyl)-piperazin-1-yl]-6,7-dimethoxy-quinazoline-8-carbonitrile] | 440 nM
COc1cc2c(N)nc(N3CCN(C(=O)/C=C/C4CCC4)C[C@@H]3C)nc2c(F)c1OC [Example 6, (E)-1-[(S)-4-(4-Amino-8-fluoro-6,7-dimethoxy-quinazolin-2-yl)-3-methyl-piperazin-1-yl]-3-cyclobutyl-propenone] | 190 nM
COc1cc2c(N)nc(N3CCN(C(=O)/C=C/c4ccc(C#N)cc4)C[C@@H]3C)nc2c(F)c1OC [Example 7, 4-{(E)-3-[(S)-4-(4-Amino-8-fluoro-6,7-dimethoxy-quinazolin-2-yl)-3-methyl-piperazin-1-yl]-3-oxo-propenyl}-benzonitrile] | 20 nM
CC[C@H]1CN(C(=O)/C=C/c2ccc(C#N)cc2)CCN1c1nc(N)c2cc(OC)c(OC)c(F)c2n1 [Example 8, 4-{(E)-3-[(S)-4-(4-Amino-8-fluoro-6,7-dimethoxy-quinazolin-2-yl)-3-ethyl-piperazin-1-yl]-3-oxo-propenyl}-benzonitrile] | 11 nM
CCC[C@H]1CN(C(=O)/C=C/c2ccc(C#N)cc2)CCN1c1nc(N)c2cc(OC)c(OC)c(F)c2n1 [Example 9, 4-{(E)-3-[(S)-4-(4-Amino-8-fluoro-6,7-dimethoxy-quinazolin-2-yl)-3-propyl-piperazin-1-yl]-3-oxo-propenyl}-benzonitrile] | 20 nM
COc1cc2c(N)nc(N3CCN(C(=O)/C=C/c4ccc(C#N)cc4)C[C@@H]3c3ccccc3)nc2c(F)c1OC [Example 10, 4-{(E)-3-[(S)-4-(4-Amino-8-fluoro-6,7-dimethoxy-quinazolin-2-yl)-3-phenyl-piperazin-1-yl]-3-oxo-propenyl}-benzonitrile] | 6 nM
COCCOc1c(OC)cc2c(N)nc(N3CCN(C(=O)/C=C/c4ccc(C#N)cc4)CC3)nc2c1F [Example 11, 4-((E)-3-{4-[4-Amino-8-fluoro-6-methoxy-7-(2-methoxy-ethoxy)-quinazolin-2-yl]-piperazin-1-yl}-3-oxo-propenyl)-benzonitrile] | 230 nM
COc1cc2nc(N3CCN(C(=O)/C=C/C4CC4)CC3)nc(N)c2c(F)c1OC [Example 12, (E)-1-[4-(4-Amino-5-fluoro-6,7-dimethoxy-quinazolin-2-yl)-piperazin-1-yl]-3-cyclopropyl-propenone] | 140 nM
COc1cc2c(N)nc(N3CCN(C(=O)/C=C/C4CC4)CC3)nc2c(Cl)c1OC [Example 13, (E)-1-(4-(4-Amino-8-chloro-6,7-dimethoxyquinazolin-2-yl)piperazin-1-yl)-3-cyclopropylprop-2-en-1-one] | 1050 nM
COc1cc2nc(N3CCN(C(=O)/C=C/C4CC4)CC3)nc(N)c2c(Cl)c1OC [Example 14, (E)-1-(4-(4-Amino-5-chloro-6,7-dimethoxyquinazolin-2-yl)piperazin-1-yl)-3-cyclopropylprop-2-en-1-one] | 3290 nM
COc1cc2c(N)nc(N3CCN(C(=O)/C=C/C4CC4)CC3)nc2c(Br)c1OC [Example 15, (E)-1-(4-(4-Amino-8-bromo-6,7-dimethoxyquinazolin-2-yl)piperazin-1-yl)-3-cyclopropylprop-2-en-1-one] | 1280 nM
COc1cc2c(N)nc(N3CCN(C(=O)/C=C/c4ccc(F)cc4)CC3)nc2c(Cl)c1OC [Example 16, (E)-1-(4-(4-Amino-8-chloro-6,7-dimethoxyquinazolin-2-yl)piperazin-1-yl)-3-(4-fluorophenyl)prop-2-en-1-one] | 1440 nM

SMILES | IC50
COc1cc2c(N)nc(N3CCN(C(=O)c4cc5ccccc5[nH]4)CC3)nc2c(F)c1OC [Example 17, [4-(4-Amino-8-fluoro-6,7-dimethoxy-quinazolin-2-yl)-piperazin-1-yl]-(1H-indol-2-yl)-methanone] | 340 nM
COc1cc2c(N)nc(N3CCN(C(=O)c4cc5cc(C#N)ccc5[nH]4)CC3)nc2c(F)c1OC [Example 18, 2-[4-(4-Amino-8-fluoro-6,7-dimethoxy-quinazolin-2-yl)-piperazine-1-carbonyl]-1H-indole-5-carbonitrile] | 20 nM
COc1cc2c(N)nc(N3CCN(C(=O)c4cc5cc(O)ccc5[nH]4)CC3)nc2c(F)c1OC [Example 19, [4-(4-Amino-8-fluoro-6,7-dimethoxy-quinazolin-2-yl)-piperazin-1-yl]-(5-hydroxy-1H-indol-2-yl)-methanone] | 80 nM
COc1cc2c(N)nc(N3CCN(C(=O)c4cc5c(OC)cccc5[nH]4)CC3)nc2c(F)c1OC [Example 20, [4-(4-Amino-8-fluoro-6,7-dimethoxy-quinazolin-2-yl)-piperazin-1-yl]-(4-methoxy-1H-indol-2-yl)-methanone] | 9630 nM
COc1cc2c(N)nc(N3CCN(C(=O)c4cc5cc(F)ccc5[nH]4)CC3)nc2c(F)c1OC [Example 21, [4-(4-Amino-8-fluoro-6,7-dimethoxy-quinazolin-2-yl)-piperazin-1-yl]-(5-fluoro-1H-indol-2-yl)-methanone] | 70 nM
COc1cc2c(N)nc(N3CCN(C(=O)c4cc5cc(F)cc(F)c5[nH]4)CC3)nc2c(F)c1OC [Example 22, [4-(4-Amino-8-fluoro-6,7-dimethoxy-quinazolin-2-yl)-piperazin-1-yl]-(5,7-difluoro-1H-indol-2-yl)-methanone] | 17 nM
COc1cc2c(N)nc(N3CCN(C(=O)c4cc5cc(C#N)ccc5[nH]4)C[C@@H]3C)nc2c(F)c1OC [Example 23, 2-[(S)-4-(4-Amino-8-fluoro-6,7-dimethoxy-quinazolin-2-yl)-3-methyl-piperazine-1-carbonyl]-1H-indole-5-carbonitrile] | 15 nM
COc1cc2c(N)nc(N3CCN(C(=O)c4cc5cc(F)ccc5[nH]4)C[C@@H]3C)nc2c(F)c1OC [Example 24, [(S)-4-(4-Amino-8-fluoro-6,7-dimethoxy-quinazolin-2-yl)-3-methyl-piperazin-1-yl]-(5-fluoro-1H-indol-2-yl)-methanone] | 90 nM
CC[C@H]1CN(C(=O)c2cc3cc(C#N)ccc3[nH]2)CCN1c1nc(N)c2cc(OC)c(OC)c(F)c2n1 [Example 25, 2-[(S)-4-(4-Amino-8-fluoro-6,7-dimethoxy-quinazolin-2-yl)-3-ethyl-piperazine-1-carbonyl]-1H-indole-5-carbonitrile] | 6 nM
CCC[C@H]1CN(C(=O)c2cc3cc(C#N)ccc3[nH]2)CCN1c1nc(N)c2cc(OC)c(OC)c(F)c2n1 [Example 26, 2-[(S)-4-(4-Amino-8-fluoro-6,7-dimethoxy-quinazolin-2-yl)-3-propyl-piperazine-1-carbonyl]-1H-indole-5-carbonitrile] | 11 nM
CCC[C@H]1CN(C(=O)c2cc3cc(F)ccc3[nH]2)CCN1c1nc(N)c2cc(OC)c(OC)c(F)c2n1 [Example 27, [(S)-4-(4-Amino-8-fluoro-6,7-dimethoxy-quinazolin-2-yl)-3-propyl-piperazin-1-yl]-(5-fluoro-1H-indol-2-yl)-methanone] | 280 nM
COc1cc2c(N)nc(N3CCN(C(=O)c4cc5cc(C#N)ccc5[nH]4)C[C@@H]3c3ccccc3)nc2c(F)c1OC [Example 28, 2-[(S)-4-(4-Amino-8-fluoro-6,7-dimethoxy-quinazolin-2-yl)-3-phenyl-piperazine-1-carbonyl]-1H-indole-5-carbonitrile] | 5 nM
COc1cc2c(N)nc(N3CCN(C(=O)c4cc5cc(F)ccc5[nH]4)C[C@@H]3c3ccccc3)nc2c(F)c1OC [Example 29, (S)-(4-(4-amino-8-fluoro-6,7-dimethoxyquinazolin-2-yl)-3-phenylpiperazin-1-yl)(5-fluoro-1H-indol-2-yl)methanone] | 14 nM
COCCOc1c(OC)cc2c(N)nc(N3CCN(C(=O)c4cc5cc(Cl)ccc5[nH]4)C[C@@H]3C)nc2c1F [Example 30, {(S)-4-[4-Amino-8-fluoro-6-methoxy-7-(2-methoxy-ethoxy)-quinazolin-2-yl]-3-methyl-piperazin-1-yl}-(5-chloro-1H-indol-2-yl)-methanone] | 70 nM
C#CC[C@H](N)CC(=O)N1CCN(c2nc(N)c3cc(OC)c(OC)c(F)c3n2)CC1 [Example 31, (S)-3-Amino-1-[4-(4-amino-8-fluoro-6,7-dimethoxy-quinazolin-2-yl)-piperazin-1-yl]-hex-5-yn-1-one] | 1040 nM
COc1cc2c(N)nc(N3CCN(C(=O)C[C@@H](N)C4CCCC4)CC3)nc2c(F)c1OC [Example 32, (R)-3-Amino-1-[4-(4-amino-8-fluoro-6,7-dimethoxy-quinazolin-2-yl)-piperazin-1-yl]-3-cyclopentyl-propan-1-one] | 100 nM
